Test results from patent publication US12077503B2, “Substituted cyclic amides and their use as herbicides” (FMC CORPORATION, priority 2015, dated 2024).

What was measured:
Type in all cases: in vivo
[1] = system: Kochia (Kochia scoparia); assay: Test A preemergence; settings: Bassia scoparia, pre-emergence, 240 h, 0 to 100 scale where 0 is no effect and 100 is complete control, read-out: Kochia plant response rating
Method in brief: (§1)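 Seeded soil received test chemicals as a preemergence directed spray, and seedlings at one to two leaves, 2–10 cm tall, received them postemergence, in a non-phytotoxic, surfactant-containing solvent mixture. Pots were held in a greenhouse for approximately 10 d, then rated for injury from 0, no effect, to 100, complete control.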

[2] = system: barnyardgrass (Echinochloa crus-galli); assay: Test A preemergence; settings: Echinochloa crus-galli, pre-emergence, 240 h, 0 to 100 scale where 0 is no effect and 100 is complete control, read-out: Barnyardgrass plant response rating
Method in brief: as §1

[3] = system: pigweed (Amaranthus retroflexus); assay: Test A preemergence; settings: Amaranthus retroflexus, pre-emergence, 240 h, 0 to 100 scale where 0 is no effect and 100 is complete control, read-out: Pigweed plant response rating
[4] = system: giant foxtail (Setaria faberii); assay: Test A preemergence; settings: Setaria faberi, pre-emergence, 240 h, 0 to 100 scale where 0 is no effect and 100 is complete control, read-out: Foxtail, Giant plant response rating
Method in brief: as §1

[5] = system: ragweed (common ragweed, Ambrosia elatior); assay: Test A preemergence; settings: Ambrosia artemisiifolia, pre-emergence, 240 h, 0 to 100 scale where 0 is no effect and 100 is complete control, read-out: Ragweed plant response rating
Method in brief: as §1

[6] = system: ryegrass, Italian (Italian ryegrass, Lolium multiflorum); assay: Test A preemergence; settings: Lolium multiflorum, pre-emergence, 240 h, 0 to 100 scale where 0 is no effect and 100 is complete control, read-out: Ryegrass, Italian plant response rating
Method in brief: as §1

[7] = system: Galium (catchweed bedstraw, Galium aparine); assay: Test A postemergence; settings: Galium, post-emergence, 240 h
Method in brief: as §1

[8] = system: Kochia (Kochia scoparia); assay: Test A postemergence; settings: Bassia scoparia, post-emergence, 240 h
Method in brief: as §1

[9] = system: corn (Zea mays); assay: Test A postemergence; settings: Zea mays, post-emergence, 240 h
Method in brief: as §1

[10] = system: barnyardgrass (Echinochloa crus-galli); assay: Test A postemergence; settings: Echinochloa crus-galli, post-emergence, 240 h
Method in brief: as §1

[11] = system: pigweed (Amaranthus retroflexus); assay: Test A postemergence; settings: Amaranthus retroflexus, post-emergence, 240 h
Method in brief: as §1

[12] = system: wheat (Triticum aestivum); assay: Test A postemergence; settings: Triticum aestivum, post-emergence, 240 h
Method in brief: as §1

[13] = system: giant foxtail (Setaria faberii); assay: Test A postemergence; settings: Setaria faberi, post-emergence, 240 h
Method in brief: as §1

[14] = system: ragweed (common ragweed, Ambrosia elatior); assay: Test A postemergence; settings: Ambrosia artemisiifolia, post-emergence, 240 h
Method in brief: as §1

[15] = system: ryegrass, Italian (Italian ryegrass, Lolium multiflorum); assay: Test A postemergence; settings: Lolium multiflorum, post-emergence, 240 h
Method in brief: as §1

[16] = system: blackgrass (Alopecurus myosuroides); assay: Test A postemergence; settings: Alopecurus myosuroides, post-emergence, 240 h
Method in brief: as §1

[17] = system: barnyardgrass (Echinochloa crus-galli); assay: Test B flooded paddy test; settings: Echinochloa crus-galli, 250 g ai/ha, Flood; 0 to 100 scale where 0 is no effect and 100 is complete control; read-out: Barnyardgrass plant response rating
Method in brief: (§2)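 Flooding to 3 cm over soil accompanied treatment, which consisted of adding compound to the standing water around 2-leaf plants; depth was then maintained. Visual assessment versus controls followed at 13 to 15 d (scale 0–100, 0 meaning no effect).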

[18] = system: ducksalad (Heteranthera limosa); assay: Test B flooded paddy test; settings: Heteranthera limosa, 250 g ai/ha, Flood; 0 to 100 scale where 0 is no effect and 100 is complete control; read-out: Ducksalad plant response rating
Method in brief: as §2

[19] = system: sedge, umbrella (small-flower umbrella sedge, Cyperus difformis); assay: Test B flooded paddy test; settings: Cyperus difformis, 250 g ai/ha, Flood; 0 to 100 scale where 0 is no effect and 100 is complete control; read-out: Sedge, Umbrella plant response rating
Method in brief: as §2

[20] = system: rice (Oryra sativa); assay: Test B flooded paddy test; settings: Oryza sativa, 250 g ai/ha, Flood; 0 to 100 scale where 0 is no effect and 100 is complete control; read-out: Rice plant response rating
Method in brief: as §2

[21] = 125 g ai/ha, preemergence, approx. 10 d

Q: `C=C(C)c1cccc([C@H]2CN(C)C(=O)[C@@H]2C(=O)Nc2ccc(F)c(F)c2F)c1` [Compound 1087] was tested. Which pest or weed control at 31 g/ha ([1]; 31 g ai/ha, Preemergence) did it give?
A: Its pest or weed control at 31 g/ha is 0%.

Q: What about the pest or weed control at 125 g/ha [1, 21] of the same compound?
A: The pest or weed control at 125 g/ha was 60%.

Q: And the pest or weed control at 31 g/ha ([2]; 31 g ai/ha, Preemergence)?
A: Its pest or weed control at 31 g/ha is 0%.

Q: And the pest or weed control at 125 g/ha [2, 21]?
A: The pest or weed control at 125 g/ha was 90%.

Q: And the pest or weed control at 31 g/ha ([3]; 31 g ai/ha, Preemergence)?
A: The pest or weed control at 31 g/ha was 0%.

Q: What about the pest or weed control at 125 g/ha [3, 21] of the same compound?
A: The pest or weed control at 125 g/ha was 0%.

Q: And the pest or weed control at 31 g/ha ([4]; 31 g ai/ha, Preemergence)?
A: Its pest or weed control at 31 g/ha is 90%.

Q: What about the pest or weed control at 125 g/ha [4, 21] of the same compound?
A: The pest or weed control at 125 g/ha was 100%.

Q: And the pest or weed control at 31 g/ha ([5]; 31 g ai/ha, Preemergence)?
A: The pest or weed control at 31 g/ha was 0%.

Q: What about the pest or weed control at 125 g/ha [5, 21] of the same compound?
A: The pest or weed control at 125 g/ha was 0%.

Q: And the pest or weed control at 31 g/ha ([6]; 31 g ai/ha, Preemergence)?
A: The pest or weed control at 31 g/ha was 0%.

Q: And the pest or weed control at 125 g/ha [6, 21]?
A: Its pest or weed control at 125 g/ha is 30%.

Q: And the pest or weed control at 125 g/ha ([7]; 125 g ai/ha, postemergence, visual injury on 0 to 100 scale (0 no effect, 100 complete control), approx. 10 d, read-out: Galium plant response rating)?
A: Its pest or weed control at 125 g/ha is 70%.

Q: And the pest or weed control at 31 g/ha ([7]; Postemergence, 31 g ai/ha, visual injury after approx. 10 d, 0 to 100 scale, 0 no effect, 100 complete control, read-out: Plant response rating, Galium)?
A: Its pest or weed control at 31 g/ha is 30%.

Q: And the pest or weed control at 125 g/ha ([8]; 125 g ai/ha, postemergence, visual injury on 0 to 100 scale (0 no effect, 100 complete control), approx. 10 d, read-out: Kochia plant response rating)?
A: The pest or weed control at 125 g/ha was 20%.

Q: And the pest or weed control at 31 g/ha ([8]; Postemergence, 31 g ai/ha, visual injury after approx. 10 d, 0 to 100 scale, 0 no effect, 100 complete control, read-out: Plant response rating, Kochia)?
A: The pest or weed control at 31 g/ha was 0%.

Q: What about the plant injury at 125 g/ha ([9]; 125 g ai/ha, postemergence, visual injury on 0 to 100 scale (0 no effect, 100 complete control), approx. 10 d, read-out: Corn plant response rating) of the same compound?
A: The plant injury at 125 g/ha was 0%.

Q: And the Corn plant response rating (crop injury, 0 = no effect, 100 = complete kill) at 31 g/ha ([9]; Postemergence, 31 g ai/ha, visual injury after approx. 10 d, 0 to 100 scale, 0 no effect, 100 complete control)?
A: Its Corn plant response rating (crop injury, 0 = no effect, 100 = complete kill) at 31 g/ha is 0%.

Q: And the pest or weed control at 125 g/ha ([10]; 125 g ai/ha, postemergence, visual injury on 0 to 100 scale (0 no effect, 100 complete control), approx. 10 d, read-out: Barnyardgrass plant response rating)?
A: Its pest or weed control at 125 g/ha is 90%.

Q: What about the pest or weed control at 31 g/ha ([10]; Postemergence, 31 g ai/ha, visual injury after approx. 10 d, 0 to 100 scale, 0 no effect, 100 complete control, read-out: Plant response rating, Barnyardgrass) of the same compound?
A: Its pest or weed control at 31 g/ha is 20%.

Q: What about the pest or weed control at 125 g/ha ([11]; 125 g ai/ha, postemergence, visual injury on 0 to 100 scale (0 no effect, 100 complete control), approx. 10 d, read-out: Pigweed plant response rating) of the same compound?
A: The pest or weed control at 125 g/ha was 30%.

Q: And the pest or weed control at 31 g/ha ([11]; Postemergence, 31 g ai/ha, visual injury after approx. 10 d, 0 to 100 scale, 0 no effect, 100 complete control, read-out: Plant response rating, Pigweed)?
A: The pest or weed control at 31 g/ha was 0%.

Q: What about the plant injury at 125 g/ha ([12]; 125 g ai/ha, postemergence, visual injury on 0 to 100 scale (0 no effect, 100 complete control), approx. 10 d, read-out: Wheat plant response rating) of the same compound?
A: The plant injury at 125 g/ha was 0%.

Q: And the plant injury at 31 g/ha ([12]; Postemergence, 31 g ai/ha, visual injury after approx. 10 d, 0 to 100 scale, 0 no effect, 100 complete control, read-out: Plant response rating, Wheat)?
A: Its plant injury at 31 g/ha is 0%.

Q: And the pest or weed control at 125 g/ha ([13]; 125 g ai/ha, postemergence, visual injury on 0 to 100 scale (0 no effect, 100 complete control), approx. 10 d, read-out: Foxtail, Giant plant response rating)?
A: The pest or weed control at 125 g/ha was 60%.

Q: What about the pest or weed control at 31 g/ha ([13]; Postemergence, 31 g ai/ha, visual injury after approx. 10 d, 0 to 100 scale, 0 no effect, 100 complete control, read-out: Plant response rating, Foxtail, Giant) of the same compound?
A: The pest or weed control at 31 g/ha was 30%.

Q: What about the pest or weed control at 125 g/ha ([14]; 125 g ai/ha, postemergence, visual injury on 0 to 100 scale (0 no effect, 100 complete control), approx. 10 d, read-out: Ragweed plant response rating) of the same compound?
A: Its pest or weed control at 125 g/ha is 0%.

Q: What about the pest or weed control at 31 g/ha ([14]; Postemergence, 31 g ai/ha, visual injury after approx. 10 d, 0 to 100 scale, 0 no effect, 100 complete control, read-out: Plant response rating, Ragweed) of the same compound?
A: Its pest or weed control at 31 g/ha is 0%.

Q: And the pest or weed control at 125 g/ha ([15]; 125 g ai/ha, postemergence, visual injury on 0 to 100 scale (0 no effect, 100 complete control), approx. 10 d, read-out: Ryegrass, Italian plant response rating)?
A: Its pest or weed control at 125 g/ha is 0%.

Q: What about the pest or weed control at 31 g/ha ([15]; Postemergence, 31 g ai/ha, visual injury after approx. 10 d, 0 to 100 scale, 0 no effect, 100 complete control, read-out: Plant response rating, Ryegrass, Italian) of the same compound?
A: Its pest or weed control at 31 g/ha is 0%.

Q: And the pest or weed control at 125 g/ha ([16]; 125 g ai/ha, postemergence, visual injury on 0 to 100 scale (0 no effect, 100 complete control), approx. 10 d, read-out: Blackgrass plant response rating)?
A: The pest or weed control at 125 g/ha was 30%.

Q: What about the pest or weed control at 31 g/ha ([16]; Postemergence, 31 g ai/ha, visual injury after approx. 10 d, 0 to 100 scale, 0 no effect, 100 complete control, read-out: Plant response rating, Blackgrass) of the same compound?
A: The pest or weed control at 31 g/ha was 0%.

Q: And the pest or weed control at 250 g/ha [17]?
A: The pest or weed control at 250 g/ha was 70%.

Q: What about the pest or weed control at 250 g/ha [18] of the same compound?
A: The pest or weed control at 250 g/ha was 30%.

Q: What about the pest or weed control at 250 g/ha [19] of the same compound?
A: The pest or weed control at 250 g/ha was 0%.

Q: What about the pest or weed control at 250 g/ha [20] of the same compound?
A: Its pest or weed control at 250 g/ha is 25%.
